{
  "source": "PubChem BioAssay AID1259411",
  "about": "(Chemical Carcinogenesis Research Information System (CCRIS), 2018)",
  "test_system": "rodent carcinogenicity bioassays, tumor incidence",
  "assay": "CCRIS carcinogenicity studies",
  "text": "The CCRIS database contains chemical records with carcinogenicity, mutagenicity, tumor promotion, and tumor inhibition test results. It was developed by the National Cancer Institute (NCI). Data are derived from studies cited in primary journals, current awareness tools, NCI reports, and other sources. Test results have been reviewed by experts in carcinogenesis and mutagenesis.\nCCRIS provides historical information from the years 1985 - 2011. It is no longer updated.\nThis is an archive assay for CCRIS carcinogenicity studies.",
  "note": "Activity calls are given as the source filed them. The rule behind the calls is not given here.",
  "data": [
    {"smiles": "CC(C)=CCC/C(C)=C/C=O", "values": [
      {"measurement": "carcinogen call", "setting": "Species: MOUSE, Strain/Sex: B3C3F1/FEMALE (50), Route: ORAL, Dose: 0, 500, 1000, 2000 PPM IN MICROCAPSULES IN THE DIET FOR 2 YR (STUDY DURATION: 2 YR), Dose: 0, 500, 1000, 2000 PPM IN MICROCAPSULES IN THE DIET FOR 2 YR (STUDY DURATION: 2 YR), Tumor Site: Type of Lesion: LYMPHATIC SYSTEM: MALIGNANT LYMPHOMA", "value": "equivocal"},
      {"measurement": "carcinogen call", "setting": "Species: MOUSE, Strain/Sex: B6C3F1/MALE (50), Route: ORAL, Dose: 0, 500, 1000, 2000 PPM IN MICROCAPSULES IN THE DIET FOR 2 YR (STUDY DURATION: 2 YR), Dose: 0, 500, 1000, 2000 PPM IN MICROCAPSULES IN THE DIET FOR 2 YR (STUDY DURATION: 2 YR)", "value": "inactive; negative"},
      {"measurement": "carcinogen call", "setting": "Species: RAT, Strain/Sex: F344/FEMALE, Route: ORAL, Dose: 0, 1000, 2000, 4000 PPM IN MICROCAPSULES IN THE DIET FOR 2 YR (STUDY DURATION: 2 YR), Dose: 0, 1000, 2000, 4000 PPM IN MICROCAPSULES IN THE DIET FOR 2 YR (STUDY DURATION: 2 YR)", "value": "inactive; negative"},
      {"measurement": "carcinogen call", "setting": "Species: RAT, Strain/Sex: F344/MALE, Route: ORAL, Dose: 0, 1000, 2000, 4000 PPM IN MICROCAPSULES IN THE DIET FOR 2 YR (STUDY DURATION: 2 YR), Dose: 0, 1000, 2000, 4000 PPM IN MICROCAPSULES IN THE DIET FOR 2 YR (STUDY DURATION: 2 YR)", "value": "inactive; negative"}
    ]},
    {"smiles": "O=C(O)c1cc(Oc2ccc(C(F)(F)F)cc2Cl)ccc1[N+](=O)[O-]", "values": [
      {"measurement": "carcinogen call", "setting": "Species: MOUSE, Strain/Sex: B6C3F1/FEMALE, Route: ORAL, Dose: 0, 625, 1250, 2500 PPM IN DIET FOR 18 MO (STUDY DURATION: 18 MO), Dose: 0, 625, 1250, 2500 PPM IN DIET FOR 18 MO (STUDY DURATION: 18 MO), Tumor Site: Type of Lesion: LIVER: ADENOMA, CARCINOMA, STOMACH: PAPILLOMA", "value": "active; positive"},
      {"measurement": "carcinogen call", "setting": "Species: MOUSE, Strain/Sex: B6C3F1/MALE, Route: ORAL, Dose: 0, 625, 1250, 2500 PPM IN DIET FOR 18 MO (STUDY DURATION: 18 MO), Dose: 0, 625, 1250, 2500 PPM IN DIET FOR 18 MO (STUDY DURATION: 18 MO), Tumor Site: Type of Lesion: LIVER: ADENOMA, CARCINOMA, STOMACH: PAPILLOMA", "value": "active; positive"},
      {"measurement": "carcinogen call", "setting": "Species: MOUSE, Strain/Sex: CR-CD-1/FEMALE, Route: ORAL, Dose: 0, 7.5, 4.5, 270 PPM IN DIET FOR 24 MO (STUDY DURATION: 24 MO), Dose: 0, 7.5, 4.5, 270 PPM IN DIET FOR 24 MO (STUDY DURATION: 24 MO), Tumor Site: Type of Lesion: LIVER: ADENOMA OR CARCINOMA", "value": "active; positive"},
      {"measurement": "carcinogen call", "setting": "Species: MOUSE, Strain/Sex: CR-CD-1/MALE, Route: ORAL, Dose: 0, 7.5, 4.5, 270 PPM IN DIET FOR 24 MO (STUDY DURATION: 24 MO), Dose: 0, 7.5, 4.5, 270 PPM IN DIET FOR 24 MO (STUDY DURATION: 24 MO), Tumor Site: Type of Lesion: LIVER: ADENOMA OR CARCINOMA", "value": "active; positive"},
      {"measurement": "carcinogen call", "setting": "Species: RAT, Strain/Sex: F344/MALE, FEMALE, Route: ORAL, Dose: 0, 25, 150, 500, 2500, 5000 PPM IN DIET FOR 2 YR (STUDY DURATION: 2 YR), Dose: 0, 25, 150, 500, 2500, 5000 PPM IN DIET FOR 2 YR (STUDY DURATION: 2 YR)", "value": "inactive; negative"}
    ]},
    {"smiles": "CCCC(=O)CN(C)N=O", "values": [
      {"measurement": "carcinogen call", "setting": "Species: RAT, Strain/Sex: WISTAR/MALE, FEMALE, Route: SUBCUTANEOUS, Dose: 0, 75 MG/KG 1/WK FOR 6 WK TO ADULT ANIMALS (STUDY DURATION: LIFETIME), Tumor Site: Type of Lesion: ESOPHAGUS: PAPILLOMA, NASAL CAVITY: PAPILLOMA, SQUAMOUS CARCINOMA OR ADENOMA, SOFT TISSUE (INJECTION SITE): SARCOMA, THY, Tumor Site: Type of Lesion: ESOPHAGUS: PAPILLOMA, NASAL CAVITY: PAPILLOMA, SQUAMOUS CARCINOMA OR ADENOMA, SOFT TISSUE (INJECTION SITE): SARCOMA, THY", "value": "active; positive"},
      {"measurement": "carcinogen call", "setting": "Species: RAT, Strain/Sex: WISTAR/MALE,FEMALE, Route: INTRAPERITONEAL, Dose: 0, 75 MG/KG 1/WK FOR 6 WK BEGINNING AT 52-61 DAYS OF AGE (STUDY DURATION: >35 WK), Tumor Site: Type of Lesion: ESOPHAGUS: PAPILLOMA, NASAL CAVITY: TUMOR, INJECTION SITE: SARCOMA, Tumor Site: Type of Lesion: ESOPHAGUS: PAPILLOMA, NASAL CAVITY: TUMOR, INJECTION SITE: SARCOMA", "value": "active; positive"}
    ]},
    {"smiles": "C=CCCl", "values": [
      {"measurement": "carcinogen call", "setting": "Species: MOUSE, Strain/Sex: B6C3F1/FEMALE, Route: GAVAGE, Dose: 0, 129, 258 MG/KG IN CORN OIL 5 D/WK FOR 78 (STUDY DURATION: 92 WK), Dose: 0, 129, 258 MG/KG IN CORN OIL 5 D/WK FOR 78 (STUDY DURATION: 92 WK), Tumor Site: Type of Lesion: FORESTOMACH: SQUAMOUS CELL CARCINOMA OR PAPILLOMA", "value": "equivocal"},
      {"measurement": "carcinogen call", "setting": "Species: MOUSE, Strain/Sex: B6C3F1/MALE, Route: GAVAGE, Dose: 0, 172, 199 MG/KG IN CORN OIL 5 D/WK FOR 78 (STUDY DURATION: 92 WK), Dose: 0, 172, 199 MG/KG IN CORN OIL 5 D/WK FOR 78 (STUDY DURATION: 92 WK), Tumor Site: Type of Lesion: FORESTOMACH: SQUAMOUS CELL CARCINOMA", "value": "equivocal"},
      {"measurement": "carcinogen call", "setting": "Species: RAT, Strain/Sex: OSBORNE-MENDEL/FEMALE, Route: GAVAGE, Dose: 0, 55, 73 MG/KG N CORN OIL 5 D/WK FOR 78 (STUDY DURATION: 108-111 WK), Dose: 0, 55, 73 MG/KG N CORN OIL 5 D/WK FOR 78 (STUDY DURATION: 108-111 WK)", "value": "inactive; negative"},
      {"measurement": "carcinogen call", "setting": "Species: RAT, Strain/Sex: OSBORNE-MENDEL/MALE, Route: GAVAGE, Dose: 0, 57, 77 MG/KG IN CORN OIL 5 D/WK FOR 78 (STUDY DURATION: 108-111 WK), Dose: 0, 57, 77 MG/KG IN CORN OIL 5 D/WK FOR 78 (STUDY DURATION: 108-111 WK)", "value": "inactive; negative"}
    ]},
    {"smiles": "CCCCCCCCCCCCN(C)N=O", "values": [
      {"measurement": "carcinogen call", "setting": "Species: RAT, Strain/Sex: F344/MALE, Route: GAVAGE, Dose: 60 MG/ML IN CORN OIL 2/WK FOR 30 WK, STUDY DURATION: 112 WK, Tumor Site: Type of Lesion: LUNG: ADENOCARCINOMA, FORESTOMACH: CARCINOMA, BLADDER, Tumor Site: Type of Lesion: LUNG: ADENOCARCINOMA, FORESTOMACH: CARCINOMA, BLADDER", "value": "active; positive"}
    ]},
    {"smiles": "FC(Cl)C(F)(F)F", "note": "(stereo unspecified)", "values": [
      {"measurement": "carcinogen call", "setting": "Species: RAT, Strain/Sex: CRL:CD/FEMALE, Route: INHALATION, Dose: 0, 2000, 10,000, 50,000 PPM 6 HR/D 5 D/WK FOR 2 YR (STUDY DURATION: 2 YR), Dose: 0, 2000, 10,000, 50,000 PPM 6 HR/D 5 D/WK FOR 2 YR (STUDY DURATION: 2 YR)", "value": "inactive; negative"},
      {"measurement": "carcinogen call", "setting": "Species: RAT, Strain/Sex: CRL:CD/MALE, Route: INHALATION, Dose: 0, 2000, 10,000, 50,000 PPM 6 HR/D 5 D/WK FOR 2 YR (STUDY DURATION: 2 YR), Dose: 0, 2000, 10,000, 50,000 PPM 6 HR/D 5 D/WK FOR 2 YR (STUDY DURATION: 2 YR)", "value": "inactive; negative"}
    ]},
    {"smiles": "Cc1cc(=O)n(-c2ccccc2)n1C", "values": [
      {"measurement": "carcinogen call", "setting": "Species: RAT, Strain/Sex: SPRAGUE-DAWLEY/MALE, Route: ORAL, Dose: 0, 0.535% IN DIET FOR 117 WK, Tumor Site: Type of Lesion: KIDNEY", "value": "active; positive"}
    ]},
    {"smiles": "NC[N+](=O)[O-]", "values": [
      {"measurement": "carcinogen call", "setting": "Species: RAT, Strain/Sex: BDVI/FEMALE, Route: GAVAGE, Dose: 0, 38, 76 MG/KG 1/WK FOR DURATION OF STUDY (STUDY DURATION: LIFETIME), Dose: 0, 38, 76 MG/KG 1/WK FOR DURATION OF STUDY (STUDY DURATION: LIFETIME), Tumor Site: Type of Lesion: SPINAL CORD: NEURINOMA, SPINAL NERVES: NEURINOMA", "value": "active; positive"},
      {"measurement": "carcinogen call", "setting": "Species: RAT, Strain/Sex: BDVI/MALE, Route: GAVAGE, Dose: 0, 38, 76 MG/KG 1/WK FOR DURATION OF STUDY (STUDY DURATION: LIFETIME), Dose: 0, 38, 76 MG/KG 1/WK FOR DURATION OF STUDY (STUDY DURATION: LIFETIME), Tumor Site: Type of Lesion: SPINAL CORD: NEURINOMA, SPINAL NERVES: NEURINOMA", "value": "active; positive"}
    ]}
  ]
}
